In article PMC6927504, “Screening of House Dust from Chinese Homes for Chemicals with Liver X Receptors Binding Activities and Characterization of Atherosclerotic Activity Using an in Vitro Macrophage Cell Line and ApoE^−/− Mice” (Environmental Health Perspectives, 2019):

Experiments:
[1] = test system: peroxisome proliferator-activated receptor-γ (PPARγ); set-up: method as in Hu et al. 2017; Pillai et al. 2014; settings: ref Hu et al. 2017; Pillai et al. 2014; cited from earlier work
[2] = molecular target: T1, human LXRβ (Homo sapiens, UniProt P55055); experiment: cell-based
T1 sequence (P55055 219-460): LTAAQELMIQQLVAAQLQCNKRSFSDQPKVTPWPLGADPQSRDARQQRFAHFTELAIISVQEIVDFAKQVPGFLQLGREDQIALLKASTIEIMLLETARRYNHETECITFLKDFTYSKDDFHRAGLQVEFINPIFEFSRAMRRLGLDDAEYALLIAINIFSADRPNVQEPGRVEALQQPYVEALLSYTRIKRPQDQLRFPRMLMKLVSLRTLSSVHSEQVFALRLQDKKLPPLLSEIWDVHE

[3] = test system: ApoE−/− mice; experiment: Immunofluorescence staining of aortic root sections (MOMA-2, SMCα-Actin) in ApoE−/− mice; format: in vivo, mouse; settings: 13 weeks
Description: All experiments related to animals were approved by the institutional animal care and use committee of Peking University and followed the guidelines for animal experiments of the university as well as for experimental animals in China. The biological effect size of the animal experiments was based on the previous paper ([Negro Silva et al. 2017]). C57BL/6 (12 weeks old) and ApoE^−/− mice (12 weeks old) were obtained from the Beijing Vital River Laboratory Animal Technology Company. Mice used in the experiments were acclimated to the housing unit 2 weeks before they were used for experiments, and they were randomly assigned to control or TPHP treatment groups. Five animals were housed to a cage, and mice were acclimatized to the controlled environment (temperature: 22±2°C; relative humidity: 40–60%; artificial lighting: 12 h:12 h light/dark). Mice received diet and drinking water ad libitum. Body weight (BW) was measured every week during the dosing period. Forty-five C57BL/6 mice and 27 ApoE^−/− mice were used in this study. Animal protocol 1: Male C57BL/6 mice (five mice per group) were fed a basic diet (Laboratory Animal Center of the Academy of Military Medical Sciences, China). On Day 0, mice were stimulated with paraffin oil by intraperitoneal injection. From Day 1 to Day 7, mice were exposed to corn oil (control) or TPHP (dissolved in corn oil) at 40 or 200mg/kg BW by daily oral gavage. The volume of the corn oil or TPHP in corn oil administered was 5mL/kg BW. On Day 8, after the mice were anesthetized by sodium pentobarbital via intramuscular injection, peritoneal macrophages were harvested from peritoneal lavage with 4mL pre-warmed DMEM-F12 (containing 10% FBS) using a 25-gauge needle; 5–10 min later, 3–3.5mL peritoneal fluid was collected, and the cells were isolated by centrifuge at 1,000 rpm for 5 min. […] Considering that this study assessed the effects of short-term exposure to TPHP, whereas humans are exposed to TPHP over a lifelong period, the present study used exposure doses that were higher than that of human exposure from house dust. […]

[4] = test system: ABCG1; experiment: qRT-PCR of LXR target gene ABCG1 in RAW264.7 macrophages; format: cell-based; settings: vehicle-treated cells set to 1
Description: RAW264.7 cells were obtained from the National Infrastructure of Cell Line Resource of Beijing, China, and the cells used for the experiment were cultured for at least three passages. Dulbecco’s Modified Eagle’s Medium (DMEM)-F12 medium containing 10% fetal bovine serum (FBS) was employed to culture the RAW264.7 cells. RAW264.7 cells were incubated at 37°C with 5% carbon dioxide. The RAW264.7 cells were plated at 2.5×10^5 cells/well (6-well plates), 6.0×10^4 cells/well (24-well plates), and 10^4 cells/well (96-well plates). The RAW264.7 cells were plated and grown overnight; then the medium was removed and fresh DMEM-F12 contained with 0.1% DMSO (control; n=3 ) or TPHP at the concentrations of 1–20,000 nM ( n=3 per group) was added. […] Then the cells were used for the quantitative reverse transcription (qRT)-PCR, cellular cholesterol efflux assay, and foam cell formation experiment.
Total RNA was isolated from RAW264.7 cells and mouse peritoneal macrophages using TRIzol reagent according to the manufacturer’s instructions. Then a Nanovue Plus™ spectrophotometer (GE Healthcare Life Science) was used to analyze the concentration, quality, and purity of the RNA. Total RNA ( 1μg ) was mixed with oligo deoxythymine (dT) ( 1μL ) at 70°C for 5 min and then combined with a mixture containing Moloney murine leukemia virus (MMLV) reverse transcriptase ( 1μL ), deoxy-ribonucleoside triphosphate (dNTP) ( 1.25μL ), Recombinant RNasin® Ribonuclease Inhibitor (Promega) ( 0.65μL ), and MMLV buffer ( 5μL ) at 42°C for 60 min. The SYBR® Green PCR Kit (TOYOBO) was used for RT-PCR analysis. Real-time fluorescence detection was performed using the StepOnePlus™ sequence detection system (Applied Biosystems). […] The following primers were designed and purchased from Sangon Biotech:
• actin: 5′-[…]-3′ and 5′-[…]-3′ ATP-binding cassette transporter A1 (ABCA1): 5′-[…]-3′ and 5′-[…]-3′ • ATP-binding cassette transporter G1 (ABCG1): 5′-[…]-3′ and 5′-[…]-3′.

SMILES: O=P(Oc1ccccc1)(Oc1ccccc1)Oc1ccccc1 [TPHP, triphenyl phosphate]
- PPARγ activity [1]: agonist
- IC50 [2]: 762 nM
- Macrophage content (MOMA-2) in aortic root lesions, higher than control ([3]; 10 mg/kg BW, p<0.05): 1.9 fold
- Macrophage content (MOMA-2) in aortic root lesions, higher than control ([3]; 40 mg/kg BW, p<0.01): 3.1 fold
- Abundance of SMCs (SMCα-Actin) in the aortic roots versus control ([3]; 10 and 40 mg/kg BW): a significant difference was not found
- ABCG1 gene expression relative to control ([4]; 100 nM, p<0.05): 0.87±0.05 fold
- ABCG1 gene expression relative to control ([4]; 1,000 nM, p<0.05): 0.80±0.06 fold
- ABCG1 gene expression relative to control ([4]; 5,000 nM, p<0.01): 0.52±0.02 fold
- ABCG1 gene expression relative to control ([4]; 10,000 nM, p<0.01): 0.42±0.05 fold
- ABCG1 gene expression relative to control ([4]; 20,000 nM, p<0.01): 0.28±0.02 fold
